Legend:
[1] = biological target: PI3Kα (p110/p85) kinase (wild type, "WT") (Homo sapiens, UniProt P42336); test: PI3Kα (p110/p85) kinase ADP-Glo Assay; assay type: biochemical; details: 25 uM ATP
In short: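 IC50 values come from a four-parameter logistic fit of ADP-Glo chemiluminescence, reflecting ADP formed. Enzyme, lipid substrate and […] compound were preincubated 30 min at room temperature, then 25 µM ATP was added for a 120 min reaction in 50 mM HEPES pH7.5, 3 mM MgCl2.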

[2] = test system: PI3Kα H1047R mutated cell line T-47D; test: Phospho-AKT (Ser473) Inhibition Assay (HTRF), T-47D; assay type: cell-based; details: for IC50: Homo sapiens, T47D, T-47D, 1 hour treatment, read-out: p-AKT Inhibition assay (S473) IC50 T-47D; for Selectivity: SK-BR-3/T-47D (p-AKT): p-AKT (S473) IC50 ratio
In short: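 Cells seeded overnight in insulin-supplemented MEM, then treated 1 h with 11-point 1:3 compound dilutions (10 μM to 0.1 nM final, 0.1% DMSO). Lysates assayed for phospho-AKT Ser473 by HTRF; IC50 from 4-parameter logistic fit, normalised to DMSO (max) and 10 μM GDC0077 (min).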

Chain of PI3Kα (p110/p85) kinase (wild type, "WT") (P42336 whole entry): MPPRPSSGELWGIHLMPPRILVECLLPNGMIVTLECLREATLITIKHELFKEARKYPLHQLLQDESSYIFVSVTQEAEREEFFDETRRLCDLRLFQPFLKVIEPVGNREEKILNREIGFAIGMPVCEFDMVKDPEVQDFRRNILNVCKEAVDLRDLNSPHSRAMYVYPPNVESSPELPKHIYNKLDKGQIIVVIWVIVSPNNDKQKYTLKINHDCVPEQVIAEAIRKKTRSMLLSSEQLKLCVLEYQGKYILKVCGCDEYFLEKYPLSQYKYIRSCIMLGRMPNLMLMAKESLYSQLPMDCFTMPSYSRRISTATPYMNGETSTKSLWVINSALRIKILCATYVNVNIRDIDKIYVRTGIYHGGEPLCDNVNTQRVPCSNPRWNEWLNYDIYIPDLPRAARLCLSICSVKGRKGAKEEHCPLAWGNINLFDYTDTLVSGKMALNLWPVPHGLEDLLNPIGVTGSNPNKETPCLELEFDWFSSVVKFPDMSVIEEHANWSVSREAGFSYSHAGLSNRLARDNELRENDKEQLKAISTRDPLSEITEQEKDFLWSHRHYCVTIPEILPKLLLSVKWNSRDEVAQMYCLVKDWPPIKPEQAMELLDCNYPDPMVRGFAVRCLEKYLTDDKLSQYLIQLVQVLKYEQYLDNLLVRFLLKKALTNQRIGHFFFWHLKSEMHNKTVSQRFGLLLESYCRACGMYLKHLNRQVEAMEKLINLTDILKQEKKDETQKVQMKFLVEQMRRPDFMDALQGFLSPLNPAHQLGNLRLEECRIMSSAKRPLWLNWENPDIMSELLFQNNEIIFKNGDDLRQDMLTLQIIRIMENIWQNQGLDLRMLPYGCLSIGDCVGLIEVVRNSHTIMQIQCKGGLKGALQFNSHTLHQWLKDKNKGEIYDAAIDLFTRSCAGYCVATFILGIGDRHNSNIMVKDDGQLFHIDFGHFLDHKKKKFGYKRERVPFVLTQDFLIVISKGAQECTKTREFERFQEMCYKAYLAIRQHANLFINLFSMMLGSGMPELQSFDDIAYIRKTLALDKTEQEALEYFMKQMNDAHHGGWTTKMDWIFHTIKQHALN
Chain of PI3Kα (p110/p85) kinase (wild type, "WT") (P27986 whole entry partner): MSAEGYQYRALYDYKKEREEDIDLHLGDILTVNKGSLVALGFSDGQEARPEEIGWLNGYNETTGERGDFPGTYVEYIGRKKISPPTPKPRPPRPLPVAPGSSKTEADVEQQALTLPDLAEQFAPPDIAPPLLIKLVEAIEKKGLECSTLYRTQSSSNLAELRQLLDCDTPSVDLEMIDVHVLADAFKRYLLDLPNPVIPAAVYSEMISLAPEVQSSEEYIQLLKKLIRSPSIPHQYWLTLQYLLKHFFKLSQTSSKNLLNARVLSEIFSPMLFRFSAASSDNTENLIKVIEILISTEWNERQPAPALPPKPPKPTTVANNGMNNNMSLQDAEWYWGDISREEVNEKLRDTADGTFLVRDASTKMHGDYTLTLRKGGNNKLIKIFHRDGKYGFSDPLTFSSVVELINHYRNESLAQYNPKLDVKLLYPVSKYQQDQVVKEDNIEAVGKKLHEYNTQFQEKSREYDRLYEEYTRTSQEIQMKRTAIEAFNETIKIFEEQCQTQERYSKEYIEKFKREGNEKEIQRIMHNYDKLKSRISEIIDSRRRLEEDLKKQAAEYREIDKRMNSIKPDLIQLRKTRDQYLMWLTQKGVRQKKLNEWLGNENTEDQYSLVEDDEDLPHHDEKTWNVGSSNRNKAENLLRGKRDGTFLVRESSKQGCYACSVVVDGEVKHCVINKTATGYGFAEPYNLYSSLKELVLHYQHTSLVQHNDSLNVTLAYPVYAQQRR

IC50 [1] [nM] | IC50 [2] [nM] | Structure (SMILES) | Selectivity: SK-BR-3/T-47D (p-AKT) [2]
> 100000 | 109 | Cc1cc(C(C)Nc2sc3ccccc3c2C(=O)O)c2cc(-c3ccccc3)n(C)c(=O)c2c1 (stereo not drawn) [Example 92, 2-((1-(2,7-dimethyl-1-oxo-3-phenyl-1,2-dihydroisoquinolin-5-yl)ethyl)amino)benzo[b]thiophene-3-carboxylic acid] | >91
9820 | 410 | Cc1cc(C(C)Nc2ccccc2C(=O)O)c2cc(-c3cnn(C)c3)n(C)c(=O)c2c1 (stereo not drawn) [Example 91, 2-((1-(2,7-dimethyl-3-(1-methyl-1H-pyrazol-4-yl)-1-oxo-1,2-dihydroisoquinolin-5-yl)ethyl)amino)benzoic acid] | 11.6
3870 | 144 | Cc1cc(C(C)Nc2ccccc2C(=O)O)c2cc(-c3ccc(C#N)cc3)n(C)c(=O)c2c1 (stereo not drawn) [Example 4, 2-((1-(3-(4-cyanophenyl)-2,7-dimethyl-1-oxo-1,2-dihydroisoquinolin-5-yl)ethyl)amino)benzoic acid] | >69

From patent US20260125346A1, “Isoquinolinone Derivatives and 4H-Quinolizinone Derivatives and Pharmaceutical Compositions Thereof for the Treatment of Disease” (BeOne Medicines I GmbH, priority 2023, published 2026)
